Experimental data from patent US20240018166A1, “SULFONYL UREA NLRP3 INFLAMMASOME INHIBITORS” (Venatorx Pharmaceuticals, Inc., priority 2020, published 2024).

Columns and labels:
[1] = MTT cell viability assay, THP-1 cells; format: cell-based; details: human, unstimulated THP-1 cells, read-out: THP-1 Cytotoxicity CC50
Procedure: In order to assess the cytotoxicity of the compounds, an MTT cell viability assay was performed in either unstimulated THP-1 or HepG2 cells as follows. 5×10^4 THP-1 or 5×10^3 HepG2 cells were seeded into each well of a 96-well plate in 90 μL of media. Compounds were added to cells as described for the IL-10 assay and returned to the incubator for an additional 72 hours. Next, 25 μL of MTT solution (5 mg/mL in sterile PBS) was added to each well. Plates were incubated for 3 hours at 37° C., 5% CO2. Next, for THP-1 cells, 100 μl of MTT solubilization solution (40% Dimethylformamide, 2% glacial acetic acid, 16% sodium dodecyl sulfate) was then added to each well and plates were incubated at room temperature in the dark overnight. For HepG2 cells, media was aspirated, 50 μL of DMSO was added and plates were mixed briefly with an orbital plate shaker. Absorbance at 570 nm was measured using a Perkin-Elmer EnVision plate reader.
Absorbance values were converted to percentage of vehicle-treated controls. Data was then analyzed using a non-linear regression (variable slope (four-parameter)) equation in GraphPad Prism 7.0.
Table 2 provides THP-1 cytotoxicity assay CC50 values for example compounds. A indicates CC50>10 μM; B indicates CC50 between 1 and 10 μM (inclusive); C indicates CC50<1 μM. NT, not tested.

[2] = test system: IL-1β; experiment: IL-1β inhibition assay (ELISA/HTRF of culture supernatants); format: cell-based; details: Homo sapiens, PMA-differentiated THP-1 cells, tested 10 μM to 0.003 μM
Procedure: Human monocyte-like THP-1 cells were grown in RPMI media supplemented with 10% FBS (growth media) at 37° C., 5% CO2. Cell cultures were passaged every three days and maintained at a density of 5×10^5 to 1×10^6 cells per mL.
Compounds were prepared as 10 mM stock solutions in 100% DMSO. […] Each 200× dilution was then diluted 20-fold in growth media (step down dilution) to yield a 10× final assay concentration range. All compounds were tested over a final assay concentration range of 10 μM to 0.003 μM.
The level of IL-10 in supernatants from PMA-differentiated THP-1 cells was determined by ELISA using either the R&D Systems Human IL-1 beta/IL-1F2 Quantikine ELISA or the cisbio HTRF human IL 1 beta kit. Manufacturer's protocols were followed without deviation.
Background values were subtracted and resulting values were converted to percentage of vehicle-treated controls. Data was analyzed via GraphPad Prism 7.0 using a non-linear regression (variable slope (four-parameter)) equation.
Table 2 provides IL-10 ELISA EC50 values for example compounds. A indicates EC50>10 μM; B indicates EC50 between 1 and 10 μM (inclusive); C indicates EC50<1 μM.

| SMILES | CC50 at 72 h [1] [µM] | EC50 [2] [µM] |
| --- | --- | --- |
| O=C(Nc1c2c(cc3c1CCC3)CCC2)NS(=O)(=O)c1cccc(B(O)O)c1 [Example 1, (3-(N-((1,2,3,5,6,7-hexahydro-s-indacen-4-yl)carbamoyl)sulfamoyl)phenyl)boronic acid] | > 10 | 1 to 10 |
| CC1(C)[C@@H]2C[C@H]3OB(c4cccc(S(=O)(=O)NC(=O)Nc5c6c(cc7c5CCC7)CCC6)c4)O[C@@]3(C)[C@H]1C2 [Example 2, N-((1,2,3,5,6,7-hexahydro-s-indacen-4-yl)carbamoyl)-3-((3aS,4S,6S,7aR)-3a,5,5-trimethylhexahydro-4,6-methanobenzo[d][1,3,2]dioxaborol-2-yl)benzenesulfonamide] | > 10 | 1 to 10 |
| CC(C)c1cccc(C(C)C)c1NC(=O)NS(=O)(=O)c1ccc(B(O)O)cc1 [Example 3, (4-(N-((2,6-diisopropylphenyl)carbamoyl)sulfamoyl)phenyl)boronic acid] | > 10 | 1 to 10 |
| CC(C)c1cccc(C(C)C)c1NC(=O)NS(=O)(=O)c1ccc(B2O[C@@H]3C[C@@H]4C[C@@H](C4(C)C)[C@]3(C)O2)cc1 [Example 4, N-((2,6-diisopropylphenyl)carbamoyl)-4-((3aS,4S,6S,7aR)-3a,5,5-trimethylhexahydro-4,6-methanobenzo[d][1,3,2]dioxaborol-2-yl)benzenesulfonamide] | > 10 | > 10 |
| CC(C)c1cccc(C(C)C)c1NC(=O)NS(=O)(=O)c1ccc(B(O)O)s1 [Example 5, (5-(N-((2,6-diisopropylphenyl)carbamoyl)sulfamoyl)thiophen-2-yl)boronic acid] | > 10 | 1 to 10 |
| Cc1ccc(S(=O)(=O)NC(=O)Nc2c(C(C)C)cccc2C(C)C)cc1B1OC(C)(C)C(C)(C)O1 [Example 6, N-((2,6-diisopropylphenyl)carbamoyl)-4-methyl-3-(4,4,5,5-tetramethyl-1,3,2-dioxaborolan-2-yl)benzenesulfonamide] | > 10 | 1 to 10 |
| Cc1ccc(S(=O)(=O)NC(=O)Nc2c(C(C)C)cccc2C(C)C)cc1B(O)O [Example 7, (5-(N-((2,6-diisopropylphenyl)carbamoyl)sulfamoyl)-2-methylphenyl)boronic acid] | > 10 | 1 to 10 |
| COc1ccc(B(O)O)cc1S(=O)(=O)NC(=O)Nc1c(C(C)C)cccc1C(C)C [Example 8, (3-(N-((2,6-diisopropylphenyl)carbamoyl)sulfamoyl)-4-methoxyphenyl)boronic acid] | > 10 | > 10 |
| COc1ccc(B2OC(C)(C)C(C)(C)O2)cc1S(=O)(=O)NC(=O)Nc1c(C(C)C)cccc1C(C)C [Example 9, N-((2,6-diisopropylphenyl)carbamoyl)-2-methoxy-5-(4,4,5,5-tetramethyl-1,3,2-dioxaborolan-2-yl)benzenesulfonamide] | > 10 | > 10 |
| O=C(Nc1c2c(cc3c1CCC3)CCC2)NS(=O)(=O)c1ccccc1B(O)O [Example 10, (2-(N-((1,2,3,5,6,7-hexahydro-s-indacen-4-yl)carbamoyl)sulfamoyl)phenyl)boronic acid] | > 10 | > 10 |
| CC(C)c1cccc(C(C)C)c1NC(=O)NS(=O)(=O)c1ccccc1B(O)O [Example 11, (2-(N-((2,6-diisopropylphenyl)carbamoyl)sulfamoyl)phenyl)boronic acid] | > 10 | > 10 |
| O=C(Nc1c2c(cc3c1CCC3)CCC2)NS(=O)(=O)c1ccc(B(O)O)s1 [Example 12, (5-(N-((1,2,3,5,6,7-hexahydro-s-indacen-4-yl)carbamoyl)sulfamoyl)thiophen-2-yl)boronic acid] | > 10 | 1 to 10 |
| O=C(Nc1c2c(cc3c1CCC3)CCC2)NS(=O)(=O)c1ccc(B(O)O)cc1 [Example 13, (4-(N-((1,2,3,5,6,7-hexahydro-s-indacen-4-yl)carbamoyl)sulfamoyl)phenyl)boronic acid] | > 10 | 1 to 10 |
| CC1(C)[C@@H]2CC3OB(c4ccc(S(=O)(=O)NC(=O)Nc5c6c(cc7c5CCC7)CCC6)cc4)O[C@@]3(C)[C@H]1C2 (stereo partly drawn) [Example 14, N-((1,2,3,5,6,7-hexahydro-s-indacen-4-yl)carbamoyl)-4-((3aS,4S,6S)-3a,5,5-trimethylhexahydro-4,6-methanobenzo[d][1,3,2]dioxaborol-2-yl)benzenesulfonamide] | > 10 | 1 to 10 |
| Cc1c(B(O)O)cccc1S(=O)(=O)NC(=O)Nc1c2c(cc3c1CCC3)CCC2 [Example 15, (3-(N-((1,2,3,5,6,7-hexahydro-s-indacen-4-yl)carbamoyl)sulfamoyl)-2-methylphenyl)boronic acid] | > 10 | 1 to 10 |
| Cc1c(B2OC(C)(C)C(C)(C)O2)cccc1S(=O)(=O)NC(=O)Nc1c2c(cc3c1CCC3)CCC2 [Example 16, N-((1,2,3,5,6,7-hexahydro-s-indacen-4-yl)carbamoyl)-2-methyl-3-(4,4,5,5-tetramethyl-1,3,2-dioxaborolan-2-yl)benzenesulfonamide] | > 10 | 1 to 10 |
| O=C(Nc1c2c(cc3c1CCC3)CCC2)NS(=O)(=O)c1ccc2c(c1)B(O)OC2 [Example 17, N-((1,2,3,5,6,7-hexahydro-s-indacen-4-yl)carbamoyl)-1-hydroxy-1,3-dihydrobenzo[c][1,2]oxaborole-6-sulfonamide] | > 10 | 1 to 10 |
| CC(C)c1cc(B2OC(C)(C)C(C)(C)O2)ccc1NC(=O)NS(=O)(=O)c1cnn(C(C)C)c1 [Example 18, 1-isopropyl-N-((2-isopropyl-4-(4,4,5,5-tetramethyl-1,3,2-dioxaborolan-2-yl)phenyl)carbamoyl)-1H-pyrazole-4-sulfonamide] | > 10 | > 10 |
| CC(C)c1cc(B(O)O)ccc1NC(=O)NS(=O)(=O)c1cnn(C(C)C)c1 [Example 19, (3-isopropyl-4-(3-((1-isopropyl-1H-pyrazol-4-yl)sulfonyl)ureido)phenyl)boronic acid] | > 10 | > 10 |
| CC(C)n1cc(S(=O)(=O)NC(=O)Nc2cc(B3OC(C)(C)C(C)(C)O3)ccc2C2CC2)cn1 [Example 20, N-((2-cyclopropyl-5-(4,4,5,5-tetramethyl-1,3,2-dioxaborolan-2-yl)phenyl)carbamoyl)-1-isopropyl-1H-pyrazole-4-sulfonamide] | > 10 | > 10 |
| CC(C)n1cc(S(=O)(=O)NC(=O)Nc2cc(B(O)O)ccc2C2CC2)cn1 [Example 21, (4-cyclopropyl-3-(3-((1-isopropyl-1H-pyrazol-4-yl)sulfonyl)ureido)phenyl)boronic acid] | 1 to 10 | > 10 |
| CC(C)n1cc(S(=O)(=O)NC(=O)Nc2cc(B3OC(C)(C)C(C)(C)O3)ccc2C(C)(C)C)cn1 [Example 22, N-((2-(tert-butyl)-5-(4,4,5,5-tetramethyl-1,3,2-dioxaborolan-2-yl)phenyl)carbamoyl)-1-isopropyl-1H-pyrazole-4-sulfonamide] | > 10 | > 10 |
| CC(C)n1cc(S(=O)(=O)NC(=O)Nc2cc(B(O)O)ccc2C(C)(C)C)cn1 [Example 23, (4-(tert-butyl)-3-(3-((1-isopropyl-1H-pyrazol-4-yl)sulfonyl)ureido)phenyl)boronic acid] | > 10 | > 10 |
